According to US20140193827A1 (TEVA PHARMACEUTICAL INDUSTRIES, LTD., priority 2013, published 2014):

Test system: GA-primed murine splenocytes

glatiramer acetate [GA]
AVG expression CYP2S1: 6.418
